# In PMC7251097, “Aspartate/asparagine-β-hydroxylase: a high-throughput mass spectrometric assay for discovery of small molecule inhibitors” (Scientific Reports, 2020):
# Where “and” joins values, the source holds several entries; their conditions need not be identical. Equal values may be shown once. Where a name gives a salt, the structure may show the parent alone. Read-outs that look alike come from different tables or passages of the source.
# Molecular target: T1, His6-AspH315–758 (human aspartate/asparagine-β-hydroxylase, AspH) (Homo sapiens, UniProt Q12797)
# T1 construct: N-Terminally His6-tagged human AspH315–758 (His6-AspH315–758) was produced in E. coli BL21 (DE3) cells; made in house; host or cells: E. coli BL21 (DE3), pET-28a(+) vector
# T1 sequence (Q12797 315-758): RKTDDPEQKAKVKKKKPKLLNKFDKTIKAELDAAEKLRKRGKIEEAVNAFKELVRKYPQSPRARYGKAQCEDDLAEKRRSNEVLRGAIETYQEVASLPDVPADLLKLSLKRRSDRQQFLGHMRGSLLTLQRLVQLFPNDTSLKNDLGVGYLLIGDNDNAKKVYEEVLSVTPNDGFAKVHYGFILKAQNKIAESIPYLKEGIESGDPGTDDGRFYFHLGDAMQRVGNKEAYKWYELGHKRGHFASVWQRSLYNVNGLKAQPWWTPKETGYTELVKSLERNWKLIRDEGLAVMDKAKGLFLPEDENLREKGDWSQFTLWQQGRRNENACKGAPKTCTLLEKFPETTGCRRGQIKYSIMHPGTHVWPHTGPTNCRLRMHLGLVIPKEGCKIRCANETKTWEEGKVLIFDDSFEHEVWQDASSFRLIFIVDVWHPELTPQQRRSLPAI
# Assay: SPE-MS AspH inhibition assay (LOPAC screen at fixed 20 μM and IC50 dose-response), hydroxylation of cyclic peptide hFX-CP101–119
# Format: biochemical
# Conditions: for Plate 5 (% inhibition) / Plate 5 (% conversion): plate 5 (Pfitzer), test compounds at fixed 20 μM; for Plate 5 (% conversion): mean conversion DMSO 32.88; for IC50: read-out: IC50; for inhibition at 20 µM: read-out: Plate 2 (% inhibition)
# [1] = LOPAC compound at 20uM, plate 2, conversion of substrate peptide
# [2] = LOPAC compound at 20uM, plate 2, normalised to DMSO and 2,4-PDCA controls
# [3] = LOPAC compound at fixed 20 uM, plate 1, normalised to DMSO and 2,4-PDCA controls
# [4] = LOPAC compound at fixed 20 uM, substrate conversion, plate 1
# [5] = 50 nM His6-AspH315–758, 1.0 μM hFX-CP101–119, 3 μM 2OG, 2 μM Fe(II), 50 mM HEPES pH 7.5, 20 °C, mean ± SD, n = 2 (2,4-PDCA n = 10)
smiles,measurement,setting,value
CN(C)c1ccccc1CN1CCCN(Cc2ccccc2N(C)C)C1c1ccncc1 [GANT61],% inhibition,"LOPAC Plate 4, compound at 20 uM",-13.34%
same,% conversion,"LOPAC Plate 4, compound at 20 uM, substrate conversion",41.02%
Cl.Cl.Fc1ccc(C(OCCN2CCN(CCCc3ccccc3)CC2)c2ccc(F)cc2)cc1 [GBR-12909 dihydrochloride],Plate 2 (% conversion),[1],51.05%
same,Plate 2 (% inhibition),[2],-45.09%
Cl.Cl.c1ccc(CCCN2CCN(CCOC(c3ccccc3)c3ccccc3)CC2)cc1 [GBR-12935 dihydrochloride],Plate 2 (% conversion),,46.64%
same,Plate 2 (% inhibition),20 µM,-31.91%
"NC(N)=Nc1ccc2[nH]c3c(c2c1)C[C@@]1(O)[C@H]2Cc4ccc(O)c5c4[C@@]1(CCN2CC1CC1)[C@H]3O5.O=C(O)C(F)(F)F.O=C(O)C(F)(F)F [GNTI, Guanidinyl-naltrindole di-trifluoroacetate, reference compound]",Plate 2 (% conversion),,1.92%
same,Inhibition at 20 µM [%],20 µM,100% and 101.7%
same,IC50 [μM],pH 7.5,inactive
Br.Br.CN(C)CCCc1cc(C(=O)Nc2ccc(-c3ccncc3)cc2)ccc1O [GR 55562 dihydrobromide],Plate 2 (% conversion),[1],31.31%
same,Plate 2 (% inhibition),[2],13.87%
OC[C@H]1O[C@@H](n2cnc3c(N[C@H]4CCC[C@@H]4O)ncnc32)[C@H](O)[C@@H]1O [GR 79236X],Plate 1 (% inhibition),[3],-7.17%
same,Plate 1 (% conversion),[4],38.28%
Cn1cc(C(=O)OCC2CCN(CCNS(C)(=O)=O)CC2)c2ccccc21 [GR 113808],Plate 1 (% inhibition),[3],-5.71%
same,Plate 1 (% conversion),[4],37.79%
O=S(=O)(N[C@H](CO)C(C(F)(F)F)C(F)(F)F)c1ccc(Cl)s1 [GSI-953],Plate 5 (% inhibition),,5.55%
same,Plate 5 (% conversion),,34.43%
"O=C(O)CCNc1cc(N2CCc3ccccc3CC2)nc(-c2ccccn2)n1 [GSK-J1, reference compound]",IC50,[5],12.9 ± 1.05 µM
"CCOC(=O)CCNc1cc(N2CCc3ccccc3CC2)nc(-c2ccccn2)n1 [GSK-J4, reference compound]",IC50 [μM],[5],inactive
"O=C1Nc2ccc(I)cc2/C1=C/c1cc(Br)c(O)c(Br)c1 [GW5074, reference compound]",Inhibition at 20 µM [%],,101.1%
same,IC50,pH 7.5,2.48 ± 0.14 µM
CC(C)(Sc1ccc(CCN(CCCCC2CCCCC2)C(=O)NC2CCCCC2)cc1)C(=O)O [GW7647],Plate 2 (% conversion),[1],29.96%
same,inhibition at 20 µM,[2],17.9%
O=C(O)CCc1ccc(NCc2cccc(Oc3ccccc3)c2)cc1 [GW9508],Plate 2 (% conversion),[1],35.17%
same,inhibition at 20 µM,[2],2.34%
CC1=NN=C(c2ccc(N)cc2)c2cc3c(cc2C1)OCO3.Cl [GYKI 52466 hydrochloride],Plate 2 (% conversion),,38.91%
same,Plate 2 (% inhibition),[2],-8.84%
Cl.NC1C=CC=C(C(=O)O)C1 (centres unmarked) [Gabaculine hydrochloride],Plate 1 (% conversion),,33.90%
same,Plate 1 (% inhibition),,5.88%
CC[N+](CC)(CC)CCOc1cccc(OCC[N+](CC)(CC)CC)c1OCC[N+](CC)(CC)CC [Gallamine triethiodide],Plate 2 (% conversion),[1],33.88%
same,inhibition at 20 µM,[2],6.21%
CC(=O)[C@H]1CC[C@H]2[C@@H]3CC[C@H]4C[C@](C)(O)CC[C@]4(C)[C@H]3CC[C@]12C [Ganaxolone],Plate 2 (% conversion),,36.34%
same,inhibition at 20 µM,,-1.16%
Nc1nc(O)c2ncn(COC(CO)CO)c2n1 [Ganciclovir],Plate 2 (% conversion),[1],35.57%
same,inhibition at 20 µM,[2],1.14%
Nc1ccn([C@@H]2O[C@H](CO)[C@@H](O)C2(F)F)c(=O)n1 [Gemcitabine hydrochloride],Plate 1 (% inhibition),[3],11.04%
same,Plate 1 (% conversion),[4],32.17%
COC(=O)C1=CO[C@@H](O)[C@@H]2C(CO)=CC[C@H]12 [Genipin],Plate 2 (% conversion),[1],36.58%
same,inhibition at 20 µM,[2],-1.85%
O=c1c(-c2ccc(O)cc2)coc2cc(O)cc(O)c12 [Genistein],Plate 2 (% conversion),[1],19.78%
same,inhibition at 20 µM,[2],48.3%
CCOc1ncc(S(=O)(=O)N2CCN(CC)CC2)cc1-c1nc2c(CC)n(CCOC)nc2c(=O)[nH]1.O=S(=O)(O)c1ccccc1 [Gisadenafil besylate salt],Plate 1 (% conversion),,43.96%
same,Plate 1 (% inhibition),,-24.07%
CCOc1ncc(S(=O)(=O)N2CCN(CC)CC2)cc1-c1nc2c(CC)n(CCOC)nc2c(=O)[nH]1 [Gisadenafil],Plate 5 (% inhibition),,10.85%
same,Plate 5 (% conversion),,32.62%
Cc1cnc(C(=O)NCCc2ccc(S(=O)(=O)NC(=O)NC3CCCCC3)cc2)cn1 [Glipizide],inhibition at 20 µM,[2],-8.88%
Cc1cc2c(C(C)C)c(O)c(O)c(C=O)c2c(O)c1-c1c(C)cc2c(C(C)C)c(O)c(O)c(C=O)c2c1O [Gossypol],Plate 3 (% conversion),,4.73%
